Data on one compound can be found in patent US5869494A, “Uses for barbituric acid analogs” (priority 1997, dated 1999).

SMILES strings stand for the structures.

Assay [1] relates to lung carcinoma (non-small cell). The experiment in a line: Human tumor cloning system, lung carcinoma (non-small cell). The settings on record: responsive = at least 50% inhibition of tumor colony formation. In kind it is cell-based. The method, then:
Through the initial work of Hamburger and Salmon (1977 a,b), it is possible to culture human tumors using a two-layer soft agar system. This culture system, called the human tumor cloning system, was initially utilized to select the most appropriate anticancer agent for an individual patient's tumor. […] In an in vitro-in vivo correlation study involving 800 patients retrospectively, it was determined that the true positive rate for this assay was 70%, while the true negative rate for the assay was 98% (Von Hoff et al., 1981). In a more recent prospective clinical trial of the cloning system involving 604 patients, the percent true positive for the assay was 64%, while the percent true negative for the assay was 86% (Von Hoff et al., 1983). […] This system was used to study the response of compound C1 for breast cancer and non-small cell lung carcinoma.
Collection and preparation of tumor cells: After obtaining informed consent in accordance with federal and institutional guidelines, malignant effusions, ascites and bone marrow aspirates containing tumor cells as well as solid tumor specimens were collected from patients undergoing procedure carried out as a part of their diagnostic workup or as part of treatment for their disease. […] The viability of cell suspensions thus obtained was determined with trypan blue.
Tumor cells to be cloned were suspended in 0.3% agar in enriched CMRL 1066 medium (Gibco, Grand Island, N.Y.) supplemented with 15% heat-inactivated horse serum, penicillin (100 units/ml), streptomycin (2 mg/ml) glutamine (2 mM), insulin (3 units/ml), asparagine (0.6 mg/ml), and HEPES buffer (2 mM). […] After an incubation period of 14 days, plates were removed and the number of colonies were counted in each plate. The number of colonies (defined as >50 cells) formed were compared in drug treated and untreated (control) plates and the percent colonies surviving at each drug dose tested was then calculated as a percentage of control. […]

Assay [2] concerns human breast cancer MCF-7 cells. Put plainly: Inhibition of clonogenic growth of breast cancer cells. In kind it is cell-based. Particulars: for No. of Colonies (Mean ± S.D.): control 158.5 ± 12.2. On the procedure:
After additional incubation periods of 24 h and 48 h, cells were washed to remove the drug and were allowed to grow at 37° C. in a CO2 incubator. After 10 days, colonies consisting of 50 or more cells were counted.

In the case of `CCCCN1C(=O)CC(=O)N(CCCC)C1=S` [Compound C1, 4,6(1H, 5H)-pyrimidinedione, 1,3-dibutyldihydro-2-thioxo], the “# responsive tumors/total # evaluated” value in assay [1] (75 μg/ml) is reported as 0/1; in assay [1] (100 μg/ml) it was 1/1; in assay [1] (125 μg/ml), 1/1. For the same compound, the “No. of Colonies (Mean ± S.D.)” value in assay [2] (20 μg/ml, 24 hr) came out at 24.5 ± 7.8; in assay [2] (20 μg/ml, 48 hr), 24.5 ± 6.1; in assay [2] (40 μg/ml, 24 hr), 13.5 ± 5.1; in assay [2] (40 μg/ml, 48 hr), 11.7 ± 1.2; in assay [2] (80 μg/ml, 24 hr), 3.0 ± 2.2; in assay [2] (80 μg/ml, 48 hr), 0 ± 0. Also, in assay [2] (Homo sapiens, MCF7, 20 μg/ml, read-out: Percent Reduction (of colonies)), the inhibition at 20 µg/mL worked out at 84.5%. For the same compound, in assay [2] (Homo sapiens, MCF7, 40 μg/ml, read-out: Percent Reduction (of colonies)), the inhibition at 40 µg/mL is 92.6%. Further, the inhibition at 80 µg/mL in assay [2] (Homo sapiens, MCF7, 80 μg/ml, read-out: Percent Reduction (of colonies)) is 100%. For the same compound, in assay [2] (under the conditions employed), the “tumor cell clonogenic growth” value is on record as “virtually complete elimination of tumor cell clonogenic growth”.
